Data reported in patent US8957078B2, “Compounds useful as inhibitors of ATR kinase” (Vertex Pharmaceuticals Incorporated, priority 2013, dated 2015).

Experiments:
[1] = tested on: HCT116 colorectal cancer cells; test: Cisplatin Sensitization Assay (96 h cell viability MTS); assay type: cell-based; details: concentration of compound required to reduce the IC50 of Cisplatin alone by at least 3-fold; HCT116, 96 h MTS
Experimental: Compounds can be screened for their ability to sensitize HCT116 colorectal cancer cells to Cisplatin using a 96 h cell viability (MTS) assay. […] Compounds and Cisplatin are then both added simultaneously to the cell media in 2-fold serial dilutions from a top final concentration of 10 μM as a full matrix of concentrations in a final cell volume of 200 μl, and the cells are then incubated at 37° C. in 5% CO2. After 96 h, 40 μl of MTS reagent (Promega G358a) is added to each well and the cells are incubated for 1 h at 37° C. in 5% CO2. Finally, absorbance is measured at 490 nm using a SpectraMax Plus 384 reader (Molecular Devices) and the concentration of compound required to reduce the IC50 of Cisplatin alone by at least 3-fold (to 1 decimal place) can be reported.

[2] = target: T1, ATR kinase (full-length ATR) (Homo sapiens, UniProt Q13535); test: ATR Inhibition Assay (radioactive-phosphate incorporation); assay type: biochemical; details: Ki(app); 5 nM full-length ATR, 10 μM ATP, 800 μM target peptide, 25° C.
T1 construct: in the presence of 5 nM full-length ATR
T1 sequence (Q13535 whole entry): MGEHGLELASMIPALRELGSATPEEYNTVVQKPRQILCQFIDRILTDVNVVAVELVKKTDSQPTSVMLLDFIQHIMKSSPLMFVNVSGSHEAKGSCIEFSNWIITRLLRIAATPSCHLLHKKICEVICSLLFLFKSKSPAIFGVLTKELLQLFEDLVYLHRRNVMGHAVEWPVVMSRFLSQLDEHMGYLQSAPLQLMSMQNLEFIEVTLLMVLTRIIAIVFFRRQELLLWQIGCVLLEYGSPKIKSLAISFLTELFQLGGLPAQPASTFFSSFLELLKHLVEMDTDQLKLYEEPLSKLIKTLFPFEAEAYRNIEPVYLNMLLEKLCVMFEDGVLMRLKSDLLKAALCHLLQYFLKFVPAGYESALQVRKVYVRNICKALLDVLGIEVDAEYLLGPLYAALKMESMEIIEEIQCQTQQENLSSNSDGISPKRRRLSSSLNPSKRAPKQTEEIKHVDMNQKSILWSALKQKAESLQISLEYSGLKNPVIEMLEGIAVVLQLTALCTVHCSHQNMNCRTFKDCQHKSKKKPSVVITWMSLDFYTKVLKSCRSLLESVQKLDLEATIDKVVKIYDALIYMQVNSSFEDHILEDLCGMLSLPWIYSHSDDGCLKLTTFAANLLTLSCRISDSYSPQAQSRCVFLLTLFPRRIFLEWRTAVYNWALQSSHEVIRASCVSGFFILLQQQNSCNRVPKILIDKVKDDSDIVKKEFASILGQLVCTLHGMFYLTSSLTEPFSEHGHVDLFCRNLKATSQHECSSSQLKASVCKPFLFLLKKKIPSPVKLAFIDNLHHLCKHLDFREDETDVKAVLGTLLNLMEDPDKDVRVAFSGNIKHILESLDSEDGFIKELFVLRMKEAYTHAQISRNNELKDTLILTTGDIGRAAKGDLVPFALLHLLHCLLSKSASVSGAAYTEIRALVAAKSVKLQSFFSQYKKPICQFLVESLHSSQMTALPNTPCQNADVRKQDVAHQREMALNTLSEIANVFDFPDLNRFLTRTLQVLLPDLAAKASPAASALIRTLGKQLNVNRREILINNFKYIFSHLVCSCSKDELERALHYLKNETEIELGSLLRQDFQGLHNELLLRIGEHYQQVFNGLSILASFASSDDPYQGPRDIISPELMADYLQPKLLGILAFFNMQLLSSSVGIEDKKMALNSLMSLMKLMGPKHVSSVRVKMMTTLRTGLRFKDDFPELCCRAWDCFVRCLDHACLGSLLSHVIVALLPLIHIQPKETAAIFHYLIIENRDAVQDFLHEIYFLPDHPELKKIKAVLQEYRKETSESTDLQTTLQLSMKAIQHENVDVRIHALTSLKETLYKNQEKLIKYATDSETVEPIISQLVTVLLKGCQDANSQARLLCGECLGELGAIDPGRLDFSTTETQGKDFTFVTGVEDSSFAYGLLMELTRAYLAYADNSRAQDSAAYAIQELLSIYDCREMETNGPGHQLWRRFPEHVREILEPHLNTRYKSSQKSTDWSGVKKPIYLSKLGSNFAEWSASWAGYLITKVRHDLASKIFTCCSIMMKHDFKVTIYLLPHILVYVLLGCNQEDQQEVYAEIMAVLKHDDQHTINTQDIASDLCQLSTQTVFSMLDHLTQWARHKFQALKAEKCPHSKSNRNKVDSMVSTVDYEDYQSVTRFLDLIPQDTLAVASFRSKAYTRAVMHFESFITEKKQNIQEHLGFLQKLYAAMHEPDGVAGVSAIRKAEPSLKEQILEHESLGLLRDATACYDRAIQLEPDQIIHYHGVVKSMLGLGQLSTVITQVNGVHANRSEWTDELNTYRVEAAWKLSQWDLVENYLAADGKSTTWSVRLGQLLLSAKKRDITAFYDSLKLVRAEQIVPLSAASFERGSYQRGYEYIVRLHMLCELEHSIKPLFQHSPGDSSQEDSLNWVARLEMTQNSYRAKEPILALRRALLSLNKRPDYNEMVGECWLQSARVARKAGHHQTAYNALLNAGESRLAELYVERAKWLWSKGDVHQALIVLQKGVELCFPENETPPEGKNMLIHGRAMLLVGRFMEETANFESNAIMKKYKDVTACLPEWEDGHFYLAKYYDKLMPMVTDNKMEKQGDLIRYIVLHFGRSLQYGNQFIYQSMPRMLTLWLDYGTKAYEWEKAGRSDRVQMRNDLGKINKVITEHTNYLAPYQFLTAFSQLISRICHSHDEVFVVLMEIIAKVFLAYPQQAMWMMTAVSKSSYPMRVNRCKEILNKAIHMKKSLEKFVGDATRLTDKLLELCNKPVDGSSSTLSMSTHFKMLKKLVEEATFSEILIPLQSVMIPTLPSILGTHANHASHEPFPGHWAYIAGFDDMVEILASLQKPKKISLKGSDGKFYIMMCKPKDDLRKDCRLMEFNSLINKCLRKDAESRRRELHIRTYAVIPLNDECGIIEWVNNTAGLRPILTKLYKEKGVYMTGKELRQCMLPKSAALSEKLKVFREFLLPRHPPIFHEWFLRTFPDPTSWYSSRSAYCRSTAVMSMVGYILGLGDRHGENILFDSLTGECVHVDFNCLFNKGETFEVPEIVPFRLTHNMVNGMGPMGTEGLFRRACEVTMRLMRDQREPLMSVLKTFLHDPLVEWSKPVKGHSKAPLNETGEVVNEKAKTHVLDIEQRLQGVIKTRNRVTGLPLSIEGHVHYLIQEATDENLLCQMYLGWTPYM
Experimental: Compounds were screened for their ability to inhibit ATR kinase using a radioactive-phosphate incorporation assay. Assays were carried out in a mixture of 50 mM Tris/HCl (pH 7.5), 10 mM MgCl2 and 1 mM DTT. Final substrate concentrations were 10 μM [γ-33P]ATP (3 mCi 33P ATP/mmol ATP, Perkin Elmer) and 800 μM target peptide (ASELPASQPQPFSAKKK (SEQ. ID NO: 1)).
Assays were carried out at 25° C. in the presence of 5 nM full-length ATR. An assay stock buffer solution was prepared containing all of the reagents listed above, with the exception of ATP and the test compound of interest. 13.5 μL of the stock solution was placed in a 96 well plate followed by addition of 2 μL of DMSO stock containing serial dilutions of the test compound (typically starting from a final concentration of 15 μM with 3-fold serial dilutions) in duplicate (final DMSO concentration 7%). The plate was pre-incubated for 10 minutes at 25° C. and the reaction initiated by addition of 15 μL [γ-33P]ATP (final concentration 10 μM).
The reaction was stopped after […] by the addition of 30 μL 0.1M phosphoric acid containing 2 mM ATP. A multiscreen phosphocellulose filter 96-well plate (Millipore, Cat no. MAPHN0B50) was pretreated with 100 μL 0.2M phosphoric acid prior to the addition of 45 μL of the stopped assay mixture. The plate was washed with 5×200 μL 0.2M phosphoric acid. After drying, 100 μL Optiphase ‘SuperMix’ liquid scintillation cocktail (Perkin Elmer) was added to the well prior to scintillation counting (1450 Microbeta Liquid Scintillation Counter, Wallac).
After removing mean background values for all of the data points, Ki(app) data were calculated from non-linear regression analysis of the initial rate data using the Prism software package (GraphPad Prism version 3.0cx for Macintosh, GraphPad Software, San Diego Calif., USA).

**Q.** How did the “Cisplatin Sensitization Assay” value [1] turn out when CN1CCC(Oc2ncncc2NC(=O)c2c(N)nn3cc(F)cnc23)CC1 [I-A-5, 2-amino-6-fluoro-N-(4-((1-methylpiperidin-4-yl)oxy)pyrimidin-5-yl)pyrazolo[1,5-a]pyrimidine-3-carboxamide] was run?
**A.** ++ (Compounds with a Cisplatin sensitization value >0.02 μM but <0.2 μM are marked with “++.”)

**Q.** And the Ki [2]?
**A.** 10 to 1000 nM

**Q.** Nc1nn2cc(F)cnc2c1C(=O)Nc1cnncc1N1CCOCC1 [I-B-12, 2-amino-6-fluoro-N-(5-morpholinopyridazin-4-yl)pyrazolo[1,5-a]pyrimidine-3-carboxamide] was tested. Which “Cisplatin Sensitization Assay” value [1] did it give?
**A.** ++ (Compounds with a Cisplatin sensitization value >0.02 μM but <0.2 μM are marked with “++.”)

**Q.** And the Ki [2]?
**A.** 10 to 1000 nM

**Q.** Which results are given for Cc1cc(-c2c(C)nsc2NC(=O)c2c(N)nn3cc(F)cnc23)n(C)n1 [I-E-16, 2-amino-N-(4-(1,3-dimethyl-1H-pyrazol-5-yl)-3-methylisothiazol-5-yl)-6-fluoropyrazolo[1,5-a]pyrimidine-3-carboxamide]?
**A.** Cisplatin Sensitization Assay [1]: +++ (Compounds with a Cisplatin sensitization value of <0.02 μM are marked with “+++.”); Ki [2]: 10 to 1000 nM

**Q.** For CN1CCN(C(=O)C2CCN(c3ncncc3NC(=O)c3c(N)nn4cc(F)cnc34)CC2)CC1 [I-A-19, 2-amino-6-fluoro-N-(4-(4-(4-methylpiperazine-1-carbonyl)piperidin-1-yl)pyrimidin-5-yl)pyrazolo[1,5-a]pyrimidine-3-carboxamide], which “Cisplatin Sensitization Assay” value [1] is on record?
**A.** + (Compounds with a Cisplatin sensitization value >0.2 μM but <5 μM are marked with “+.”)

**Q.** And the Ki [2]?
**A.** 1000 to 5000 nM

**Q.** What does the source list for CN(C)[C@H]1CC[C@H](Oc2ncncc2NC(=O)c2c(N)nn3cc(F)cnc23)CC1 [I-A-12, 2-amino-N-(4-(((1r,4r)-4-(dimethylamino)cyclohexyl)oxy)pyrimidin-5-yl)-6-fluoropyrazolo[1,5-a]pyrimidine-3-carboxamide]?
**A.** Cisplatin Sensitization Assay [1]: ++ (Compounds with a Cisplatin sensitization value >0.02 μM but <0.2 μM are marked with “++.”); Ki [2]: 10 to 1000 nM

**Q.** How did the “Cisplatin Sensitization Assay” value [1] turn out when CN1CCC[C@@H](Oc2ncncc2NC(=O)c2c(N)nn3cc(F)cnc23)C1 [I-A-1, (R)-2-amino-6-fluoro-N-(4-((1-methylpiperidin-3-yl)oxy)pyrimidin-5-yl)pyrazolo[1,5-a]pyrimidine-3-carboxamide] was run?
**A.** + (Compounds with a Cisplatin sensitization value >0.2 μM but <5 μM are marked with “+.”)

**Q.** And the Ki [2]?
**A.** 1000 to 5000 nM

**Q.** Nc1nn2cc(F)cnc2c1C(=O)Nc1cncn1C1CC1 [I-D-3, 2-amino-N-(1-cyclopropyl-1H-imidazol-5-yl)-6-fluoropyrazolo[1,5-a]pyrimidine-3-carboxamide] was tested. Which “Cisplatin Sensitization Assay” value [1] did it give?
**A.** +++ (Compounds with a Cisplatin sensitization value of <0.02 μM are marked with “+++.”)

**Q.** What about the Ki [2] of the same compound?
**A.** 10 to 1000 nM

**Q.** Which “Cisplatin Sensitization Assay” value [1] does the source give for Nc1nn2cc(F)cnc2c1C(=O)Nc1cnncc1N1CCC(CN2CCOCC2)CC1 [I-B-8, 2-amino-6-fluoro-N-(5-(4-(morpholinomethyl)piperidin-1-yl)pyridazin-4-yl)pyrazolo[1,5-a]pyrimidine-3-carboxamide] here?
**A.** ++ (Compounds with a Cisplatin sensitization value >0.02 μM but <0.2 μM are marked with “++.”)

**Q.** What about the Ki [2] of the same compound?
**A.** 10 to 1000 nM

**Q.** Which “Cisplatin Sensitization Assay” value [1] does the source give for Cc1nsc(NC(=O)c2c(N)nn3cc(F)cnc23)c1-c1ccncc1 [I-E-14, 2-amino-6-fluoro-N-(3-methyl-4-(pyridin-4-yl)isothiazol-5-yl)pyrazolo[1,5-a]pyrimidine-3-carboxamide] here?
**A.** +++ (Compounds with a Cisplatin sensitization value of <0.02 μM are marked with “+++.”)

**Q.** What about the Ki [2] of the same compound?
**A.** 10 to 1000 nM

**Q.** What does the source list for CN1CCN(C(=O)C2CCN(c3cnccc3NC(=O)c3c(N)nn4cc(F)cnc34)CC2)CC1 [I-C-3, 2-amino-6-fluoro-N-(3-(4-(4-methylpiperazine-1-carbonyl)piperidin-1-yl)pyridin-4-yl)pyrazolo[1,5-a]pyrimidine-3-carboxamide]?
**A.** Cisplatin Sensitization Assay [1]: ++ (Compounds with a Cisplatin sensitization value >0.02 μM but <0.2 μM are marked with “++.”); Ki [2]: 10 to 1000 nM

**Q.** Which “Cisplatin Sensitization Assay” value [1] does the source give for CN1CCN(c2cnccc2NC(=O)c2c(N)nn3cc(F)cnc23)CC1 [I-C-2, 2-amino-6-fluoro-N-(3-(4-methylpiperazin-1-yl)pyridin-4-yl)pyrazolo[1,5-a]pyrimidine-3-carboxamide] here?
**A.** ++ (Compounds with a Cisplatin sensitization value >0.02 μM but <0.2 μM are marked with “++.”)

**Q.** And the Ki [2]?
**A.** 10 to 1000 nM

**Q.** How did the “Cisplatin Sensitization Assay” value [1] turn out when Nc1nn2cc(F)cnc2c1C(=O)Nc1ccncc1N1CCC(C(=O)N2CCC(N3CCCC3)CC2)CC1 [I-C-8, 2-amino-6-fluoro-N-(3-(4-(4-(pyrrolidin-1-yl)piperidine-1-carbonyl)piperidin-1-yl)pyridin-4-yl)pyrazolo[1,5-a]pyrimidine-3-carboxamide] was run?
**A.** +++ (Compounds with a Cisplatin sensitization value of <0.02 μM are marked with “+++.”)

**Q.** What about the Ki [2] of the same compound?
**A.** 10 to 1000 nM

**Q.** With COc1ncncc1NC(=O)c1c(N)nn2cc(CC#N)cnc12 [I-A-17, 2-amino-6-(cyanomethyl)-N-(4-methoxypyrimidin-5-yl)pyrazolo[1,5-a]pyrimidine-3-carboxamide] as the compound, how does the “Cisplatin Sensitization Assay” value [1] read?
**A.** ++ (Compounds with a Cisplatin sensitization value >0.02 μM but <0.2 μM are marked with “++.”)

**Q.** And the Ki [2]?
**A.** 10 to 1000 nM

**Q.** CN1CCN(c2ncncc2NC(=O)c2c(N)nn3cc(F)cnc23)CC1 [I-A-20, 2-amino-6-fluoro-N-(4-(4-methylpiperazin-1-yl)pyrimidin-5-yl)pyrazolo[1,5-a]pyrimidine-3-carboxamide] was tested. Which “Cisplatin Sensitization Assay” value [1] did it give?
**A.** + (Compounds with a Cisplatin sensitization value >0.2 μM but <5 μM are marked with “+.”)

**Q.** And the Ki [2]?
**A.** 1000 to 5000 nM

**Q.** Which results are given for Nc1nn2cc(F)cnc2c1C(=O)Nc1ccncc1N1CCCC1 [I-C-11, 2-amino-6-fluoro-N-(3-(pyrrolidin-1-yl)pyridin-4-yl)pyrazolo[1,5-a]pyrimidine-3-carboxamide]?
**A.** Cisplatin Sensitization Assay [1]: ++ (Compounds with a Cisplatin sensitization value >0.02 μM but <0.2 μM are marked with “++.”); Ki [2]: 10 to 1000 nM

**Q.** For Cc1nsc(NC(=O)c2c(N)nn3cc(F)cnc23)c1-c1cncn1C [I-E-6, 2-amino-6-fluoro-N-(3-methyl-4-(1-methyl-1H-imidazol-5-yl)isothiazol-5-yl)pyrazolo[1,5-a]pyrimidine-3-carboxamide], which “Cisplatin Sensitization Assay” value [1] is on record?
**A.** +++ (Compounds with a Cisplatin sensitization value of <0.02 μM are marked with “+++.”)

**Q.** And the Ki [2]?
**A.** 10 to 1000 nM

**Q.** Cc1cc(-c2c(C)nsc2NC(=O)c2c(N)nn3cc(F)cnc23)ccn1 [I-E-13, 2-amino-6-fluoro-N-(3-methyl-4-(2-methylpyridin-4-yl)isothiazol-5-yl)pyrazolo[1,5-a]pyrimidine-3-carboxamide] was tested. Which “Cisplatin Sensitization Assay” value [1] did it give?
**A.** +++ (Compounds with a Cisplatin sensitization value of <0.02 μM are marked with “+++.”)

**Q.** What about the Ki [2] of the same compound?
**A.** 10 to 1000 nM

**Q.** Which results are given for Cc1nsc(NC(=O)c2c(N)nn3cc(F)cnc23)c1CN1CCCC1 [I-E-17, 2-amino-6-fluoro-N-(3-methyl-4-(pyrrolidin-1-ylmethyl)isothiazol-5-yl)pyrazolo[1,5-a]pyrimidine-3-carboxamide]?
**A.** Cisplatin Sensitization Assay [1]: +++ (Compounds with a Cisplatin sensitization value of <0.02 μM are marked with “+++.”); Ki [2]: < 10 nM

**Q.** For Cc1nsc(NC(=O)c2c(N)nn3cc(F)cnc23)c1C1=CCN(C)CC1 [I-E-5, 2-amino-6-fluoro-N-(3-methyl-4-(1-methyl-1,2,3,6-tetrahydropyridin-4-yl)isothiazol-5-yl)pyrazolo[1,5-a]pyrimidine-3-carboxamide], which “Cisplatin Sensitization Assay” value [1] is on record?
**A.** +++ (Compounds with a Cisplatin sensitization value of <0.02 μM are marked with “+++.”)

**Q.** And the Ki [2]?
**A.** 10 to 1000 nM

**Q.** Which “Cisplatin Sensitization Assay” value [1] does the source give for Cc1nsc(NC(=O)c2c(N)nn3cc(F)cnc23)c1CN1CCN(C)CC1 [I-E-19, 2-amino-6-fluoro-N-(3-methyl-4-((4-methylpiperazin-1-yl)methyl)isothiazol-5-yl)pyrazolo[1,5-a]pyrimidine-3-carboxamide] here?
**A.** +++ (Compounds with a Cisplatin sensitization value of <0.02 μM are marked with “+++.”)

**Q.** What about the Ki [2] of the same compound?
**A.** < 10 nM

**Q.** Which “Cisplatin Sensitization Assay” value [1] does the source give for CN(C)[C@H]1CC[C@H](Oc2ncncc2NC(=O)c2c(N)nn3ccc(C(F)(F)F)nc23)CC1 [I-A-13, 2-amino-N-(4-(((1r,4r)-4-(dimethylamino)cyclohexyl)oxy)pyrimidin-5-yl)-5-(trifluoromethyl)pyrazolo[1,5-a]pyrimidine-3-carboxamide] here?
**A.** ++ (Compounds with a Cisplatin sensitization value >0.02 μM but <0.2 μM are marked with “++.”)

**Q.** And the Ki [2]?
**A.** 10 to 1000 nM
